Results published in patent US20070179161A1, “Pyrazolopyrimidine compounds and their use in medicine” (VERNALIS (CAMBRIDGE) LIMITED., priority 2003, published 2007).

Key:
Assay type in all cases: biochemical
GST-Chk1 enzyme = biological target: T1, GST-Chk1 enzyme (Homo sapiens, UniProt O14757); experiment: Chk1 kinase inhibition assay (33P phosphorylation of Chktide, filter plate); conditions: 0.01 mM ATP, 11 nM GST-Chk1, 40 minutes at 30° C.; read-out: Chk1 IC50
T1 sequence (O14757 1-476): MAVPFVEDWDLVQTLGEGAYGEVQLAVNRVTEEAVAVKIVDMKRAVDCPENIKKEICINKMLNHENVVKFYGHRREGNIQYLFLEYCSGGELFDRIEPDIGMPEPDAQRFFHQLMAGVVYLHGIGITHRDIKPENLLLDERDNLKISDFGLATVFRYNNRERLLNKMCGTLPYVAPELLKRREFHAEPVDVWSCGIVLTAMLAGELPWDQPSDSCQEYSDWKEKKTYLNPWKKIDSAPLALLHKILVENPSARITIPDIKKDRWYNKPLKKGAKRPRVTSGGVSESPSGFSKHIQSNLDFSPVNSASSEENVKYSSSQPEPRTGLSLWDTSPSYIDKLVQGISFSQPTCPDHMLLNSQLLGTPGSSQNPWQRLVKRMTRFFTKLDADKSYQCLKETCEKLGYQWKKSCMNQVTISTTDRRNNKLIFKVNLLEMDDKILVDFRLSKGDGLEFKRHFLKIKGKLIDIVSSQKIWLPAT
Experimental: The assay mixture containing the inhibitor and Chk1 enzyme was mixed together in a microtiter plate in a final volume of 50 μl and incubated for 40 minutes at 30° C.
The reaction was stopped by adding 50 μl of 50 mM phosphoric acid. 90 μl of the mixture was transferred to a pre-wetted 96-well Multiscreen MAPHNOB filtration plate (Millipore) and filtered on a vacuum manifold. […] The filtration plate was dried for 10 min at 65° C., scintillant added and phosphorylated peptide quantified in a scintillation counter (Trilux, PerkinElmer)

PDK1 enzyme = biological target: T2, PDK1 enzyme (Homo sapiens, UniProt O15530); experiment: PDK1 kinase inhibition assay (33P phosphorylation of synthetic peptide, filter plate); conditions: 0.01 mM ATP, 60 min at 30° C.; read-out: PDK1 IC50
T2 sequence (O15530 1-556): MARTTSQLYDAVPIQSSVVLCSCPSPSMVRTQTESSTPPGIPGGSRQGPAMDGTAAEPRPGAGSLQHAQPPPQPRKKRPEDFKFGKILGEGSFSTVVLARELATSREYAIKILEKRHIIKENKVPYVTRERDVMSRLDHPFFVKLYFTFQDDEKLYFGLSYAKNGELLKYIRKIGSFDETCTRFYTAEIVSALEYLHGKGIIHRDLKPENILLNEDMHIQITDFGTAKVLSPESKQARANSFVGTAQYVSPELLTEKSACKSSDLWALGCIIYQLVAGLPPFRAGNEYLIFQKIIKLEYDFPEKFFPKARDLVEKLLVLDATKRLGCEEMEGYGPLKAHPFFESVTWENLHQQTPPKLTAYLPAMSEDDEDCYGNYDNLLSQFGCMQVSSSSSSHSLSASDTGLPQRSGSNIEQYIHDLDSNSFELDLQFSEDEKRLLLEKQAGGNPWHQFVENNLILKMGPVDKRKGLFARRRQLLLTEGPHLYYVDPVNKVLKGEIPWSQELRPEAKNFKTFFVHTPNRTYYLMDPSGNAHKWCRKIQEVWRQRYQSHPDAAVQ
Experimental: (§1) The assay mixture containing the inhibitor and PDK1 enzyme was mixed together in a microtiter plate in a final volume of 50 μl and incubated for 60 min at 30° C. The assay mixture contained 0.01 mM unlabeled ATP, 0.01 μCi/μl ^33P-γ-ATP, 0.075 mM peptide, 0.1 mg/ml BSA, 7.5 mM magnesium acetate, 0.05M Tris.HCl, pH 7.5, 0.5% 2-mercaptoethanol. The reaction was stopped by adding 50 μl of 50 mM phosphoric acid. 90 μl of the mixture were transferred to a pre-wetted 96-well Multiscreen MAPHNOB filtration plate (Millipore) and filtered on a vacuum manifold. […] The filtration plate was dried for 10 min at 65° C., scintillant added and phosphorylated peptide quantified in a scintillation counter (Trilux, PerkinElmer)

[1] = biological target: CDK-2 enzyme, complexed with cyclin A (Homo sapiens, UniProt P24941); experiment: CDK2 enzyme inhibition assay (33P phosphorylation of peptide […], filter plate); conditions: CDK-2/cyclin A, 0.1 mM ATP, 40 min at 30° C.
Experimental: as §1, with “and CDK-2 enzyme, complexed with cyclin A (0.4 U/ml)” for “and PDK1 enzyme”, “for 40” for “for 60”, “contained 0.1” for “contained 0.01”, “^33P-γ-ATP, 0.03” for “^33P-γ-ATP, 0.075”, “acetate, 50 mM HEPES-NaOH,” for “acetate, 0.05M Tris.HCl,”, “pH 7.5.” for “pH 7.5, 0.5% 2-mercaptoethanol.”
HEPES is N-[2-Hydroxyethyl]piperazine-N′-[2-ethanesulfonic acid] BSA is bovine serum albumin.

Row | IC50 (GST-Chk1 enzyme) [µM] | IC50 (PDK1 enzyme) [µM] | IC50 [1] [µM] | SMILES
1 | 8.4 | > 200 | 1.28 | CC(C)COc1cc(Nc2ccc(S(=O)(=O)N(C)CCN(C)C)cc2)n2ncc(C(C)C)c2n1 [Example 72]
2 | > 200 | > 200 | 1.48 | CC(C)c1cnn2c(Nc3ccc(S(=O)(=O)N(C)C)cc3)cc(N3CCC(C(N)=O)CC3)nc12 [Example 73]
3 | 18.6 | > 200 | 7.27 | CC(C)c1cnn2c(Nc3ccc(S(=O)(=O)N(C)C)cc3)cc(N(C)CCCN(C)C)nc12 [Example 74]
4 | 6.28 | > 200 | 0.266 | CC(C)c1cnn2c(Nc3ccc(S(=O)(=O)N(C)C)cc3)cc(OC3CCCN(C)C3)nc12 (stereo not drawn) [Example 75]
5 | > 200 | > 200 | 0.128 | CN(C)S(=O)(=O)c1ccc(Nc2cc(Cl)nc3c(Br)cnn23)cc1 [Example 76]
6 | > 200 | 9.49 | 0.039 | CC(C)c1cnn2c(Nc3ccc(S(=O)(=O)NCCN(C)C)cc3)cc(Cl)nc12 [Example 77]
7 | > 200 | > 200 | 4.79 | CC(C)c1cnn2c(Nc3ccc(S(=O)(=O)N(C)C)cc3)cc(N3CCC(C(=O)O)CC3)nc12 [Example 78]
8 | > 200 | > 200 | 0.066 | CC(=O)N[C@H]1CC[C@H](Nc2cc(Nc3ccc(S(=O)(=O)N(C)C)cc3)n3ncc(C(C)C)c3n2)CC1 [Example 79]
9 | > 200 | 2.56 | 0.682 | CC(C)c1cnn2c(Nc3ccc(S(=O)(=O)N(C)C)cc3)cc(NCC3CCNCC3)nc12 [Example 80]
10 | > 200 | > 200 | 4.23 | CC(C)c1cnn2c(Nc3ccc(S(=O)(=O)N(C)C)cc3)cc(N3CCCC(C(=O)O)C3)nc12 (stereo not drawn) [Example 82]
11 | > 200 | > 200 | 0.14 | CC[C@H](CO)Nc1cc(Nc2ccc(S(=O)(=O)N(C)C)cc2)n2ncc(C(C)C)c2n1 [Example 83]
12 | > 200 | > 200 | 0.298 | CC(C)c1cnn2c(Nc3ccc(S(C)(=O)=O)nc3)cc(Cl)nc12 [Example 84]
13 | > 200 | > 200 | 0.03 | CC(C)c1cnn2c(Nc3ccc(S(=O)(=O)N(C)C)cc3)cc(N[C@H]3CC[C@H](NC(=O)CN(C)C)CC3)nc12 [Example 86]
14 | 16.3 | > 200 | 0.84 | CC(C)c1cnn2c(Nc3ccc(S(=O)(=O)N(C)C)cc3)cc(N(C)C3CCN(C)CC3)nc12 [Example 87]
15 | > 200 | > 200 | 0.419 | CCN(CC)C(=O)COc1cc(Nc2ccc(S(=O)(=O)N(C)C)cc2)n2ncc(C(C)C)c2n1 [Example 88]
16 | > 200 | > 200 | 8.27 | CC(C)c1cnn2c(Nc3ccc(S(=O)(=O)N(C)C)cc3)cc(N3CCCC(CN(C)C)C3)nc12 (stereo not drawn) [Example 89]
17 | 5.42 | > 200 | 0.373 | CC(C)COc1cc(Nc2ccc(S(=O)(=O)NCCN(C)C)cc2)n2ncc(C(C)C)c2n1 [Example 90]
18 | 5.36 | > 200 | 0.881 | CC(C)c1cnn2c(Nc3ccc(S(=O)(=O)NCCN(C)C)cc3)cc(OC3CCCCC3)nc12 [Example 91]
19 | > 200 | > 200 | 10.5 | CC(C)c1cnn2c(Nc3ccc(S(=O)(=O)N(C)C)cc3)cc(N3CCCC(C(=O)N(C)C)C3)nc12 (stereo not drawn) [Example 92]
20 | > 200 | > 200 | 0.572 | CN(C)S(=O)(=O)c1cccc(Nc2cc(Cl)nc3c(Br)cnn23)c1 [Example 93]

Second part, the compound before the results:

Row | SMILES | IC50 (GST-Chk1 enzyme) [µM] | IC50 (PDK1 enzyme) [µM] | IC50 [1] [µM]
21 | CC(C)c1cnn2c(Nc3ccc(S(=O)(=O)N(C)C)cc3)cc(OC3CCCC3)nc12 [Example 54] | > 200 | > 200 | 1.31
22 | CC(C)c1cnn2c(Nc3ccc(S(=O)(=O)N(C)CCO)cc3)cc(N3CCCC(CO)C3)nc12 (stereo not drawn) [Example 55] | > 200 | > 200 | 0.27
23 | CCNc1cc(Nc2ccc(S(C)(=O)=O)cc2)n2ncc(C(C)C)c2n1 [Example 56] | > 200 | 45.3 | 0.85
24 | CCc1cnn2c(Nc3ccc(S(=O)(=O)N(C)C)cc3)cc(N[C@H]3CC[C@H](N)CC3)nc12 [Example 57] | 2.61 | 2.44 | 0.069
25 | CC(C)c1cnn2c(Nc3ccc(S(C)(=O)=O)cc3)cc(N(C)CCN(C)C)nc12 [Example 58] | 51.7 | > 200 | 1.94
26 | CC(C)c1cnn2c(Nc3ccc(S(C)(=O)=O)cc3)cc(N(C)CCO)nc12 [Example 59] | > 200 | > 200 | 0.768
27 | CC(C)c1cnn2c(Nc3ccc(S(=O)(=O)N(C)CCN(C)C)cc3)cc(Cl)nc12 [Example 60] | > 200 | > 200 | 0.04
28 | CNS(=O)(=O)c1ccc(Nc2cc(N[C@H]3CC[C@H](N)CC3)nc3c(C(C)C)cnn23)cc1 [Example 61] | 6.63 | 11 | 0.032
29 | CC(C)c1cnn2c(Nc3ccc(S(=O)(=O)N4CCCC4)cc3)cc(N[C@H]3CC[C@H](N)CC3)nc12 [Example 62] | 3.24 | 1.2 | 0.024
30 | CC(C)c1cnn2c(Nc3ccc(S(=O)(=O)N(C)C)cc3)cc(NC3CCCCC3)nc12 [Example 63] | > 200 | > 200 | 0.355
31 | CC(C)Oc1cc(Nc2ccc(S(=O)(=O)N(C)C)cc2)n2ncc(C(C)C)c2n1 [Example 64] | > 200 | > 200 | 0.395
32 | CC(C)c1cnn2c(Nc3ccc(S(=O)(=O)N(C)C)cc3)cc(OCC3CCCN3C)nc12 (stereo not drawn) [Example 65] | > 200 | > 200 | 1.09
33 | COc1cc(Nc2ccc(S(=O)(=O)N(C)C)cc2)n2ncc(C(C)C)c2n1 [Example 66] | > 200 | > 200 | 0.876
34 | CNS(=O)(=O)c1ccc(Nc2cc(N[C@H]3CC[C@H](N)CC3)nc3c(C(C)C)cnn23)cc1 [Example 67] | > 200 | 4.64 | 0.03
35 | CC(C)c1cnn2c(Nc3ccc(S(=O)(=O)N(C)C)cc3)cc(NC3CCN(C)CC3)nc12 [Example 69] | 19.3 | 31.6 | 0.181
36 | CC(C)c1cnn2c(Nc3ccc(S(=O)(=O)N(C)C)cc3)cc(OC3CCN(C)C3)nc12 (stereo not drawn) [Example 70] | 79.9 | > 200 | 0.32
37 | CCN(CC)c1cc(Nc2ccc(S(=O)(=O)N(C)C)cc2)n2ncc(C(C)C)c2n1 [Example 71] | > 200 | > 200 | 0.655
